The target of this test is T1, recombinant human 11 β-HSD1 (Homo sapiens, UniProt P28845).
T1 construct: made in house; host or cells: E. coli
The test can be described thus: 11 β-HSD1 SPA Assay (Scintillation Proximity Assay). The test is classed as biochemical. Put shortly: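 E. coli-expressed human enzyme (30-100 nM) with tritiated cortisone 40 nM and NADPH 1 mM in HEPES buffer pH7.4, 2 hours at room temperature. Stopped with protein A SPA beads carrying anti-cortisol antibody and glycyrrhetinic acid; counted after overnight incubation. IC50 from percent inhibition between no-enzyme and no-compound signals.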
Background: SPA uses beads or plates that emit light when radiolabelled molecules are held near them.

Where only a bound is given, the exact number is not on record here.

As usually defined, the IC50 is the concentration that gives 50% inhibition.

T1 sequence (P28845 whole entry): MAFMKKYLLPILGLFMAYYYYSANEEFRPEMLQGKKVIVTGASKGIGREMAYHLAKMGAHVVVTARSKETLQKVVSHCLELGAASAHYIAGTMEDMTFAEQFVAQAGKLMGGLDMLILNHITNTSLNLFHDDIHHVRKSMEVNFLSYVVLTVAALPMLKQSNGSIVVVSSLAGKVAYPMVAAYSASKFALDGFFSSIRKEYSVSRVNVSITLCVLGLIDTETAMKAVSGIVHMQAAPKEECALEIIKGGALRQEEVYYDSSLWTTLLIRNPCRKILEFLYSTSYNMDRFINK

Take `CC(C)(Oc1cc(C(C)(C)O)c(F)cc1F)C(=O)N[C@H]1C[C@H]2CC[C@@H](C1)N2c1ccc(C(=O)NCC(F)F)cn1` [Example 468, N-(2,2-difluoroethyl)-6-[3-endo-({2-[2,4-difluoro-5-(2-hydroxypropan-2-yl)phenoxy]-2-methylpropanoyl}amino)-8-azabicyclo[3.2.1]oct-8-yl]pyridine-3-carboxamide]: the concentration for half-maximal inhibition (IC50) is less than 200 nM. With `CC(C)(Oc1ccc(Cl)cc1OC(F)F)C(=O)N[C@H]1C[C@H]2CC[C@@H](C1)N2c1ccc(C(=O)NCC(F)F)cn1` [Example 469, 6-[3-endo-({2-[4-chloro-2-(difluoromethoxy)phenoxy]-2-methylpropanoyl}amino)-8-azabicyclo[3.2.1]oct-8-yl]-N-(2,2-difluoroethyl)pyridine-3-carboxamide], the IC50 is less than 200 nM.

Take `CC(C)(Oc1ccc(Cl)cc1Cl)C(=O)NC1CC2CCC(C1)N2c1ccc(C(=O)NCC(N2CCOCC2)C(F)(F)F)cn1` (stereo not drawn) [Example 470, 6-(3-endo-{[2-(2,4-dichlorophenoxy)-2-methylpropanoyl]amino}-8-azabicyclo[3.2.1]oct-8-yl)-N-[3,3,3-trifluoro-2-(morpholin-4-yl)propyl]pyridine-3-carboxamide]: the IC50 is less than 200 nM. `CC(C)(Oc1ccc(C(C)(C)O)cc1Cl)C(=O)N[C@H]1C[C@H]2CC[C@@H](C1)N2c1ccc(C(=O)NCC(F)F)cn1` [Example 471, 6-[3-endo-({2-[2-chloro-4-(2-hydroxypropan-2-yl)phenoxy]-2-methylpropanoyl}amino)-8-azabicyclo[3.2.1]oct-8-yl]-N-(2,2-difluoroethyl)pyridine-3-carboxamide]: the IC50 is less than 200 nM.

Take `CC(C)(Oc1cc(C(C)(C)O)c(F)cc1Cl)C(=O)N[C@H]1C[C@H]2CC[C@@H](C1)N2c1ccc(C(=O)NCC(F)F)cn1` [Example 472, 6-[3-endo-({2-[2-chloro-4-fluoro-5-(2-hydroxypropan-2-yl)phenoxy]-2-methylpropanoyl}amino)-8-azabicyclo[3.2.1]oct-8-yl]-N-(2,2-difluoroethyl)pyridine-3-carboxamide]: the IC50 is less than 200 nM.

As for `CC(C)(Oc1cc(C(C)(C)O)c(Cl)cc1Cl)C(=O)N[C@H]1C[C@H]2CC[C@@H](C1)N2c1ccc(C(N)=O)cn1` [Example 473, 6-[3-endo-({2-[2,4-dichloro-5-(2-hydroxypropan-2-yl)phenoxy]-2-methylpropanoyl}amino)-8-azabicyclo[3.2.1]oct-8-yl]pyridine-3-carboxamide], the IC50 is less than 200 nM.

With `CC(C)(Oc1cc(C(C)(C)O)c(Cl)cc1Cl)C(=O)N[C@H]1C[C@H]2CC[C@@H](C1)N2c1ccc(C(=O)O)cn1` [Example 474, 6-[3-endo-({2-[2,4-dichloro-5-(2-hydroxypropan-2-yl)phenoxy]-2-methylpropanoyl}amino)-8-azabicyclo[3.2.1]oct-8-yl]pyridine-3-carboxylic acid], the IC50 is less than 2000 nM. On to `CC(C)(Oc1cc(C(C)(C)O)c(Cl)cc1Cl)C(=O)N[C@H]1C[C@H]2CC[C@@H](C1)N2c1ccc(C(=O)NCC(F)(F)F)cn1` [Example 475, 6-[3-endo-({2-[2,4-dichloro-5-(2-hydroxypropan-2-yl)phenoxy]-2-methylpropanoyl}amino)-8-azabicyclo[3.2.1]oct-8-yl]-N-(2,2,2-trifluoroethyl)pyridine-3-carboxamide], for which the IC50 is less than 200 nM. Consider `CC(C)(Oc1ccc(Cl)cc1Cl)C(=O)N[C@H]1C[C@H]2CC[C@@H](C1)N2c1ccc(C(=O)NCC(=O)C(F)(F)F)cn1` [Example 476, 6-(3-endo-{[2-(2,4-dichlorophenoxy)-2-methylpropanoyl]amino}-8-azabicyclo[3.2.1]oct-8-yl)-N-(3,3,3-trifluoro-2-oxopropyl)pyridine-3-carboxamide], for which the IC50 is less than 200 nM. In the case of `CC(C)NC(=O)c1ccc(N2[C@@H]3CC[C@H]2C[C@@H](NC(=O)C(C)(C)Oc2cc(C(C)(C)O)c(Cl)cc2Cl)C3)nc1` [Example 477, 6-[3-endo-({2-[2,4-dichloro-5-(2-hydroxypropan-2-yl)phenoxy]-2-methylpropanoyl}amino)-8-azabicyclo[3.2.1]oct-8-yl]-N-(propan-2-yl)pyridine-3-carboxamide], the half-inhibitory concentration (IC50) is less than 200 nM. The figure for `C=C(C)c1cc(OC(C)(C)C(=O)N[C@H]2C[C@H]3CC[C@@H](C2)N3c2ccc(C(=O)NCC(F)F)cn2)c(Cl)cc1Cl` [Example 478, 6-[3-endo-({2-[2,4-dichloro-5-(prop-1-en-2-yl)phenoxy]-2-methylpropanoyl}amino)-8-azabicyclo[3.2.1]oct-8-yl]-N-(2,2-difluoroethyl)pyridine-3-carboxamide] is less than 200 nM; for `CC(C)(Oc1cc(C(C)(C)O)c(Cl)cc1Cl)C(=O)N[C@H]1C[C@H]2CC[C@@H](C1)N2c1ccc(C(=O)NCC(F)F)c[n+]1[O-]` [Example 479, 6-[3-endo-({2-[2,4-dichloro-5-(2-hydroxypropan-2-yl)phenoxy]-2-methylpropanoyl}amino)-8-azabicyclo[3.2.1]oct-8-yl]-N-(2,2-difluoroethyl)pyridine-3-carboxamide 1-oxide] it is less than 2000 nM; for “N-(2,2-difluoroethyl)-6- [3-endo-({2-[2-fluoro-4- (2-hydroxypropan-2- yl)phenoxy]-2- methylpropanoyl}amino)- 8-azabicyclo[3.2.1]oct- 8-yl]pyridine-3- carboxamide [Example 305]” it is less than 200 nM.

The record behind these values is patent US8163771B2, “11 β-HSD1 modulators” (Exelixis, Inc., priority 2008, dated 2012).
